In patent US20250255968A1, “INTRAVAGINAL DEVICES FOR DRUG DELIVERY” (priority 2011, published 2025):
Where a name gives a salt, the structure may show the parent alone. Blank lines part the entries; values can stand above or below the compound they belong to.

Assays:
Format in all cases: physicochemical
[1] = In vitro release of EVG, DPV and TFV from hydrophilic polyurethane tubing reservoir rings; settings: for TFV steady-state release rate: in presence of DPV or EVG
From the text: Elvitegravir (EVG), TFV, and glycerol (63/5/32 wt % TFV/EVG/glycerol-water, where glycerol was premixed as a 33/2 wt % stock solution) was loaded into the lumen of 35 wt % swelling hydrophilic polyurethane single-segment tubing with 5.5 mm cross-sectional diameter and 0.7 mm wall thickness. […] Similarly, dapivirine (DPV) was formulated in various equilibrium swelling hydrophilic polyurethane tubing lumens (all with 5.5 mm cross-sectional diameter and 0.7 mm wall thickness) at 63/5/32 wt % TFV/DPV/glycerol-water (mean±SD, N=5). […] Both DPV and EVG rings described above were tested for in vitro release immediately after ring fabrication. It is known from above examples, as well as previously published work that amphiphilic and lipophilic compounds including DPV often are soluble in polyurethanes up to 20 wt %. Therefore, a ring delivering hydrophobic APIs, such as EVG or DPV, should show little or no lag time in releasing the drug after adequate storage time, since the API should partition into the tubing wall on ring storage. TFV release from HTPU 35 and 60% swelling rings was not noticeably affected by the presence of DPV and EVG (TFV steady-state release rates were approximately 13 and 22 mg/day, respectively).

[2] = In vitro release of IQP-0528 from hydrophobic tubing IVR; settings: for 30 days; core 48 wt % drug/52 wt % glycerol in Tecoflex EG85A tubing preloaded with 4.7 wt % drug
From the text: An IVR as described in Examples 1, 2, 3, and 9 is manufactured by premixing hydrophobic small molecule API (such as IQP-0528, UC-781, or levonorgestrel) with non-swellable polymer (such as Tecoflex®) and titanium dioxide. The tubing is then extruded as described above using a single screw extruder and tubing crosshead. The tubing may or may not incorporate reinforced/braided tubing or metallic springs to mechanically support the wall. The tubing is then filled with the API and excipient(s) mixture and joined to make a ring as described above. […] The core is composed of 48 wt % drug and 52 wt % glycerol paste filled in a hydrophobic tubing (Tecoflex® EG85A) preloaded with 4.7 wt % drug. In this example, approximately 600 μg of IQP-0528 was released daily for 30 days.

[3] = TDF release from HydroThane IVR after storage at elevated temperature
Method: As a means of diminishing or eliminating API release lag-time, devices may be stored at elevated temperature ranging from 40° C. to 70° C., depending on drug stability, for a predetermined amount of time to accelerate diffusion of the API from the tubing lumen to the tubing wall. After a predetermined time/temperature storage, the API loading in the device wall be equilibrated and the device will show minimal or no lag-time in drug release. This approach works for APIs which show some solubility in the rate-controlling polymer. Also, in certain instances this approach may negate the need for an osmotic agent. […] The IVRs are incubated at elevated temperatures, for example 65° C. for 5 days. […] This minimal amount of TDF in tubing wall reduced the lag time for equilibrium drug release and about 2-3 mg of TDF was delivered on days 1-3.

[4] = In vitro TFV release from IVR with drug-impregnated polymeric core; settings: HPU 60/TFV (40% w/w) core jacketed with HPU 20/TFV (5% w/w); sodium acetate buffer pH 4.2, 37° C., 77 days, after initial burst
From the text: The HPU 20/TFV was used to jacket HPU 60/TFV using a twin-screw extruder and crosshead die. Reservoir rods were cut to approximately 14 cm sections, of which the ends were joined using an O-ring butt-welding clamp and medical grade Tecoflex® 1-MP fast-crystallization polyurethane adhesive, (200-300 cps viscosity, solution of polyurethane based polymer in methyl ethyl ketone and methylene chloride) resulting in a ring with 50-60 mm outer diameter and 5-6 mm outer cross-sectional diameter. […] Several of these IVRs were incubated at 37° C. and in sodium acetate buffer (pH 4.2) for 77 days. Sink conditions were maintained throughout the entire experiment. […] (See FIG. 5.)

[5] = In vitro drug release testing of dual-segment TFV/LNG IVR in aqueous buffer sink; settings: hydrophilic tubing reservoir segment of dual-segment IVR
Method: Example 29B. In a further example, a TFV/glycerol/water (65/33/2 wt %) semi-solid paste was loaded into the hydrophilic tubing reservoir segment and LNG was dissolved in the hydrophobic solid core reservoir segment of a dual segment IVR made according to Example 29A (using similar polyurethane tubing). The resulting IVR was subjected to in vitro drug release testing in an aqueous buffer sink for 90 days.

[6] = In vitro tenofovir release from single-segment reservoir IVR (HPLC); settings: 35 wt % swelling Tecophilic HP-60D tubing IVR, TFV/glycerol 70/30 wt % core; pH 4.2 sodium acetate buffer, 37° C., 80 rpm
Method: (§1) In vitro tenofovir (TFV) release and IVR mechanical studies were conducted to evaluate device performance. IVRs were incubated in pH 4.2 sodium acetate buffer and placed in a 37° C., 80 rpm shaker for up to 120 days. Sink conditions were maintained throughout the entire experiment, and release media was changed daily. Quantification of amount of TFV released was determined using high performance liquid chromatography (HPLC) (aqueous mobile phase gradient method on reverse phase C18 column, Agilent 1200 series HPLC). Mechanical properties of the rings over time were measured by compressing rings 25% of their initial outer diameter at a rate of 1 mm/sec using an Instron 3342 mechanical testing system (Norwood, MA) with custom machined aluminum probe. The TFV release rapidly attained steady-state, and release was dependent on polymer equilibrium swelling. The 35 wt % polymer was able to maintain steady-state release through 105 days. Also, the ring mechanical properties changed little with time, even after all drug was released. (See FIG. 2.)

[7] = In vitro TFV release from Tecophilic HP-60D-35 IVR with or without osmotic agent glycerol
Method: as §1

SMILES: Cc1cc(C)c(Nc2ccnc(Nc3ccc(C#N)cc3)n2)c(C)c1 [DPV, dapivirine]
- DPV lag time ([1]; various hydrophilic polyurethane rings, tested immediately after fabrication): approximately two weeks

SMILES: COc1cc2c(cc1Cc1cccc(Cl)c1F)c(=O)c(C(=O)O)cn2[C@H](CO)C(C)C [EVG, Elvitegravir]
- EVG release rate ([1]; for 28 days, unstored rings, 35 wt % swelling hydrophilic polyurethane tubing, 63/5/32 wt % TFV/EVG/glycerol-water): over 300 μg/day
- EVG lag time ([1]; unstored rings, 35 wt % swelling hydrophilic polyurethane tubing): several-day lag time

SMILES: Cc1cc(C)cc(C(=O)c2c(C(C)C)c(=O)[nH]c(=O)n2CC2CC2)c1 [IQP-0528]
- IQP-0528 released daily [2]: approximately 600 μg

The remaining lines, values ahead:

- TDF concentration in tubing wall ([3]; HydroThane 25-93A IVR, TDF + sodium chloride (15 wt % of TDF), incubated 65° C. for 5 days): 5 mg/g polymer
- TDF delivered ([3]; on days 1-3, after 65° C. storage for 5 days): 2 to 3 mg
SMILES: CC(C)OC(=O)OCOP(=O)(CO[C@H](C)Cn1cnc2c(N)ncnc21)OCOC(=O)OC(C)C [TDF, tenofovir disoproxil fumarate]

- TFV release profile [4]: zero-order fashion
- lag period before zero-order TFV release [5]: 1 days
- TFV release profile ([5]; TFV/glycerol/water 65/33/2 wt % paste, 90 days): Zero-order release
- duration of maintained steady-state TFV release [6]: 105 days
- TFV steady-state release rate ([1]; HTPU 35% swelling rings): approximately 13 mg/day
- TFV steady-state release rate ([1]; HTPU 60% swelling rings): ~22 mg/day
- time to steady state TFV release rate ([7]; 65/33/2 wt % TFV/glycerol/water paste (glycerol 33 wt %)): ≤ 3 days
- time to steady state TFV release rate ([7]; 100% TFV powder in the core): > 28 days
SMILES: C[C@H](Cn1cnc2c(N)ncnc21)OCP(=O)(O)O [TFV, ({[(2R)-1-(6-amino-9H-purin-9-yl)propan-2-yl]oxy}methyl)phosphonic acid]
